Experiment [1] concerns OVCAR-3 cells. Description: MMS-induced nuclear PAR accumulation, immunofluorescence imaging. It counts as cell-based. The note with it: Homo sapiens; OVCAR-3, 50 μg/mL MMS, n=3; read-out: Geometric Mean EC50, PAR accumulation. As for the experimental part:
(§1) The HeLa (Cat #CCL-2) and OVCAR-3 (Cat #HTB-161) human cancer cell lines were obtained from ATCC (Manassas, Virginia, USA) and the RMUG-S(Cat #IFO50320) and Kuramochi (Cat #JCRB0098) cell lines were obtained from the National Institutes of Biomedical Innovation, Health and Nutrition's Japanese Collection of Research Bioresources (Ibaraki City, Osaka, Japan).
(§2) All cell lines were grown in an incubator at 37° C. in 5% CO2. HeLa cells were cultured in Dulbecco's Modified Medium (DMEM)+glutaMAX™ (Thermo Fisher Scientific, Waltham, MA, USA Cat #10566-016) containing 1% penicillin/streptomycin (pen/strep) (Thermo Fisher Scientific Cat #15070-063), and 10% fetal bovine serum (FBS) (Thermo Fisher Scientific Cat #A31605-02). Kuramochi cells were cultured in RPMI medium+glutaMAX™ (Thermo Fisher Scientific Cat #72400-047), 10% FBS, and 1% pen/strep. RMUG-S cells were cultured in Ham's F12 medium+glutaMAX™ (Thermo Fisher Scientific Cat #31765-035) containing 10% FBS, and 1% pen/strep. OVCAR-3 cells were cultured in RPMI medium+glutaMAX™ containing 20% FBS, 1% pen/strep, and 0.01 mg/mL bovine insulin (MilliporeSigma, Burlington, MA, USA Cat #10516-5ML).
(§3) Compound 1 EC50 values for accumulation of PAR chains were determined using an immunofluorescence high-content imaging assay of PAR staining. Cells were harvested with trypsin (Thermo Fisher Scientific, Cat #25200-056) and plated in black-walled, clear bottom 96-well Corning Costar 3603 plates (VWR, Radnor, PA, USA Cat #29444-008) at 15,000 cells/well in 100 μL normal growth media. The cells were incubated overnight at 37° C., 5% CO2. The following day, a 1000× Compound 1 concentration curve was prepared by serial dilution of Compound 1 in 100% DMSO for twelve concentrations with the highest starting final concentration of 10 μM. The 1000× test compound curve was diluted 1:200 into growth media to prepare a 5× concentration curve in 0.5% DMSO/media before addition of 25 μL of compound or 0.5% DMSO/media alone to each well of the plate. The plate was mixed gently on a plate shaker and then preincubated at 37° C., 5% CO2 for 1 hour. A 2.25× stock of MMS (Sigma Cat #129925-5G) plus Compound 1 in media was prepared by diluting a 100 mg/mL stock of MMS prepared in 100% DMSO into growth media containing 1× Compound 1 compound. […] Nuclear PAR accumulation was evaluated by imaging the plates on an ImageXpress Pico automated cell imaging system (Molecular Devices, San Jose, CA, USA).
(§4) Four fields for each well were acquired at 20× magnification resulting in at least 1,000 cells analyzed per well. Percent PAR positive cells were calculated using CellReporterXpress software (Molecular Devices, San Jose, CA, USA) using nuclei detection by DAPI image segmentation then setting a fluorescence intensity threshold for PAR. […]

Experiment [2] deals with Kuramochi cells. The description is as above. It counts as cell-based. The conditions noted are these: Homo sapiens, 50 μg/mL MMS, n=3, read-out: Geometric Mean EC50, PAR accumulation. The protocol:
as §1, §2, §3, §4

For experiment [3], the system named is RMUG-S cells. The description is as above. The conditions noted are these: Homo sapiens, 50 μg/mL MMS, n=3, read-out: Geometric Mean EC50, PAR accumulation. It counts as cell-based. The protocol: as §1, §2, §3, §4
The subject of experiment [4] is GP2D cells. Description: 6-day growth assay, Compound 1 in combination with exatecan. It counts as cell-based, human. The protocol:
The activity of Compound 1 in combination with exatecan was evaluated in the HCC1954, HCC1806, and GP2D cancer cell lines in a 6-day growth assay. HCC1954 (Cat #CRL-2338) and HCC1806 (Cat #CRL-2335) cells were obtained from American Type Culture Collection (ATCC) and maintained in ATCC modified RPMI (Cat #30-2001)+10% FBS (Cat #A3160502)+1% penicillin/streptomycin (Cat #15140-122) in a humidified incubator at 37° C., 5% CO2. GP2D cells were obtained from ECACC (Cat #95090714-1VL) and maintained in DMEM+GlutaMAX (Cat #10566-016)+10% FBS (Cat #A3160502)+1% penicillin/streptomycin (Cat #15140-122). Cells were seeded at 2,500 cells/well (HCC1954 and GP2D) or 2,000 cells/well (HCC1806) in 100 μL of growth medium in a 96-well plate (Corning costar Cat #3603) and allowed to adhere overnight at 37° C. with 5% CO2. The next day, serial dilutions of Compound 1 and exatecan were prepared and added to the corresponding wells of a 96-well plate. A solution of 0.1% DMSO in medium was used as the negative control. Cells were incubated with compound for 6 days at 37° C. with 5% CO2, then fixed, stained, and counted as described in Example 3. Concentration response-curves and IC50 values were generated by non-linear regression analysis using a 4-parameter variable slope fit in GraphPad Prism 10 software. Potential synergy between Compound 1 and exatecan was assessed using Zero interaction potency (ZIP), Highest Single Agent (HSA), Bliss, and Loewe synergy models to find the most synergistic area score, where scores >10 indicate that the interaction between the two drugs is likely to be synergistic (Ianevski et al. 2020).

A word on the EC50: it is the concentration that produces a half-maximal response. The IC50 is the concentration that gives 50% inhibition. Take `[2H]C([2H])(c1cnn(C)c1)N1C(=O)c2cc(S(=O)(=O)NC3(C)CC3)ccc2N2C1=NC[C@H]2C` [Compound 1, (R)-1-methyl-4-((1-methyl-1H-pyrazol-4-yl)methyl-d2)-N-(1-methylcyclopropyl)-5-oxo-1,2,4,5-tetrahydroimidazo[1,2-a]quinazoline-7-sulfonamide]: the EC50 turned out to be 20 nM in experiment [1], 9 nM in experiment [2] and 38 nM in experiment [3]. For the same compound, the IC50 in experiment [4] (Homo sapiens, GP2d, exatecan 0.03 nM) came to 6 µM; in experiment [4] (Homo sapiens, GP2d, exatecan 0.1 nM), 5.1 µM; in experiment [4] (Homo sapiens, GP2d, exatecan 0.3 nM), 3.1 µM; in experiment [4] (Homo sapiens, GP2d, exatecan 1 nM), 3.1 µM; in experiment [4] (Homo sapiens, GP2d, exatecan 3 nM) it was 8.1 µM; in experiment [4] (Homo sapiens, GP2d, exatecan 30 nM), 5.4 µM. For the same compound, the IC50 came out at 6.3 µM in experiment [4] (exatecan 0.03 nM) and 3.3 µM in experiment [4] (exatecan 1 nM).

(Values after US20260272936A1, “TREATMENT OF CANCER WITH A PARG INHIBITOR” (858 Therapeutics, Inc., priority 2023, published 2026).)
